# Test results: patent US20250074869A1, “AMINO-COMBRETASTATIN DERIVATIVE AND USE THEREOF” (priority 2020, published 2025)
# Legend:
# [1] = test system: gastric cancer cells SGC-7901; assay: Efficacy study in nude mouse with xenograft tumor, SGC-7901; assay type: in vivo, human; conditions: BALB/cA-nude mice, subcutaneous xenograft, 50 mg/kg intragastric once daily for 21 days, dosed as hydrochloride
# Method: (§1) BALB/cA-nude mice aged 6 to 7 weeks were purchased from Shanghai Slac Laboratory Animal Co., Ltd. The nude mice were subcutaneously grafted with human liver cancer cells Bel-7402, colon cancer cells HT-29, gastric cancer cells SGC-7901 or non-small cell lung cancer cells A549. After the tumor grew to 100 to 250 mm^3, the animals were randomized (d0). The tumor volumes and body weights were measured twice or thrice a week, and the data were recorded. Tumor volume (V) was calculated as follows:
# (§2) [formula] • wherein a and b represent length and width, respectively; T and C are the tumor volumes at the end of study; T0 and C0 are the tumor volumes at the start of study.
# (§3) All samples were diluted to the desired concentration with 50% PEG400 in distilled water. The regimen was once daily for 21 days at 50 mg/kg mouse body weight through intragastric administration, and 50 mg/kg for the control. The compounds obtained in Examples 1, 3, 4, 5, 6, 7, 8, 9, 10, 11, 12, 13 and 14 and the control were prepared into corresponding hydrochloride as the dosing compounds according to the method disclosed in Example 2 to investigate their efficacy on human liver cancer cell Bel-7402, colon cancer cell HT-29, gastric cancer cell SGC-7901 or non-small cell lung cancer cell A549 xenograft tumors in nude mice and to compare the compounds with the control (prepared as in Example 16).
# Male ICR mice = assay: Acute toxicity study in animals (oral LD50); conditions: mouse, in vivo
# Excerpt: Male ICR mice weighed 23±2 g, clean grade, were selected. The route of administration was intragastric (ig) administration, which is consistent with the intended oral route for clinical use.
# Mice were randomly divided into 8 groups by weight: the blank control group, Example 1 group, Example 5 group, Example 11 group, Example 12 group, Example 13 group, Example 14 group and control group. Among these, the control group received amino-combretastatin serinamide hydrochloride as the control (hereinafter referred to as control).
# Preparation of the compounds used in the example groups: The compounds obtained in Example 1, Example 3. Example 4. Example 5. Example 6. Example 7. Example 8. Example 9. Example 10. Example 11. Example 12, Example 13 and Example 14 were prepared into hydrochloride salts according to the method disclosed in Example 2.
# Pre-treatment: […] were deprived of food but not water for 12 h before the study. and randomized into groups of 10 by body weight. The treatment groups were intragastrically administered once at 0.25 mL/10 g body weight, and the water control group received an equivalent amount of distilled water through intragastric administration. The LD100 value (the amount for 100% death), LD0 (the amount for 0 death) and the corresponding range r value between the dose groups were calculated, and LD50 was determined.
# Study procedures: 160 mice were randomized into 8 groups of 20 mice by body weight. After deprivation of food but not water for 12 h before the study, each group was intragastrically given the compound once at 0.3 mL/10 g body weight. Since no death was observed after 12 h, the second dose was given. The control group received equivalent volumes of water. The daily dose of each group was calculated; the control group received equal volumes of water and was subjected to an acute toxicity study for observation and the body weight of the mice was recorded daily for 14 days.
# [2] = test system: human liver cancer cells Bel-7402; assay: Efficacy study in nude mouse with xenograft tumor, Bel-7402; assay type: in vivo; conditions: BALB/cA-nude mice, subcutaneous xenograft, 50 mg/kg intragastric once daily for 21 days, dosed as hydrochloride
# Method: as §1, §2, §3
# [3] = test system: non-small cell lung cancer cells A549; assay: Efficacy study in nude mouse with xenograft tumor, A549; assay type: in vivo, human; conditions: BALB/cA-nude mice, subcutaneous xenograft, 50 mg/kg intragastric once daily for 21 days, dosed as hydrochloride
# Method: as §1, §2, §3
# colon cancer cells HT-29 = assay: Efficacy study in nude mouse with xenograft tumor, HT-29; assay type: in vivo, human; conditions: BALB/cA-nude mice, subcutaneous xenograft, 50 mg/kg intragastric once daily for 21 days, dosed as hydrochloride
# Method: as §1, §2, §3
substance,measurement,setting,value
"amino-combretastatin serinamide hydrochloride [Control, reference compound]",% tumor inhibition (D21) SGC-7901,[1],34%
same,LD50,Male ICR mice,200 mg/kg
same,% tumor inhibition (D21) Bel-7402,[2],39%
same,% tumor inhibition (D21) A549,[3],30%
same,% tumor inhibition (D21) HT-29,colon cancer cells HT-29,42%
